According to US20060069132A1, “Azolecarboxamide herbicides” (priority 2004, published 2006):

Columns and labels:
[1] = tested on: soybean; test: Test C pre-/postemergence herbicide test; type: in vivo, Glycine max
Method in brief: (§1)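 Emerged plants at the 1- to 4-leaf stage (2–18 cm), or freshly planted seeds, received test chemicals in a non-phytotoxic solvent mixture with surfactant. Response was visually scored against controls after 12 to 14 days in the greenhouse, on a 0 (no effect) to 100 (complete control) scale.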

[2] = tested on: giant foxtail; test: Test A pre-/postemergence herbicide test; type: in vivo, Setaria faberi
Method in brief: (§2)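 Both application timings were run together: directed soil spray over freshly planted seeds in sandy loam, and runoff spray onto 2–10 cm seedlings. Evaluation after ~10 days in greenhouse used a 0–100 visual scale versus untreated controls.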

[3] = tested on: large crabgrass; test: Test C pre-/postemergence herbicide test; type: in vivo, Digitaria sanguinalis
Method in brief: as §1

[4] = tested on: pigweed; test: Test C pre-/postemergence herbicide test; type: in vivo, Amaranthus retroflexus
Method in brief: as §1

[5] = tested on: giant foxtail; test: Test C pre-/postemergence herbicide test; type: in vivo, Setaria faberi
Method in brief: as §1

[6] = tested on: ducksalad; test: Test C flooded paddy test; type: in vivo, Heteranthera limosa; details: for Plant response rating, Ducksalad: 500 g ai/ha, visual rating after 12 to 14 days
[7] = tested on: yellow nutsedge; test: Test C pre-/postemergence herbicide test; type: in vivo, Cyperus esculentus
Method in brief: as §1

[8] = tested on: redroot pigweed; test: Test A pre-/postemergence herbicide test; type: in vivo, Amaranthus retroflexus
Method in brief: as §2

[9] = tested on: morningglory; test: Test A pre-/postemergence herbicide test; type: in vivo, Ipomoea spp.
Method in brief: as §2

[10] = tested on: velvetleaf; test: Test C pre-/postemergence herbicide test; type: in vivo, Abutilon theophrasti
Method in brief: as §1

[11] = tested on: common ragweed; test: Test C pre-/postemergence herbicide test; type: in vivo, Ambrosia elatior; parameters: key to Plant response rating, Ragweed: 0 = no effect, 100 = complete control
Method in brief: as §1

[12] = tested on: barnyardgrass; test: Test C flooded paddy test; type: in vivo, Echinochloa crus-galli; details: for Plant response rating, Barnyardgrass: 500 g ai/ha, visual rating after 12 to 14 days
Method in brief: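 Injury scored visually against controls on a 0 (no effect) to 100 (complete control) scale, 12 to 14 days after treatment in greenhouse. Flooded paddy plants treated at 2-leaf stage; postemergence plants at 1- to 4-leaf stage, 2 to 18 cm tall.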

[13] = tested on: goosegrass; test: Test C pre-/postemergence herbicide test; type: in vivo, Eleusine indica
Method in brief: as §1

[14] = Postemergence, 500 g ai/ha, scale 0 to 100
[15] = Postemergence, 250 g ai/ha, scale 0 to 100, 0 no effect, 100 complete control
[16] = postemergence, 125 g ai/ha, scale 0 to 100
[17] = postemergence, 62 g ai/ha, scale 0 to 100
[18] = Postemergence, 500 g ai/ha, 0 to 100 scale, 0 no effect, 100 complete control
[19] = Postemergence, 2000 g ai/ha, 0 to 100 scale, 0 no effect, 100 complete control
[20] = Preemergence, 500 g ai/ha, visual rating, 0 to 100 scale (0 no effect, 100 complete control)
[21] = Preemergence, 2000 g ai/ha, visual rating, 0 to 100 scale (0 no effect, 100 complete control)
[22] = 62 g ai/ha, scale 0 to 100 (0 no effect, 100 complete control)
[23] = 125 g ai/ha, scale of 0 to 100, 0 is no effect, 100 is complete control
[24] = 250 g ai/ha, scale of 0 to 100, 0 is no effect, 100 is complete control
[25] = scale 0 to 100 (0 no effect, 100 complete control)
[26] = 62 g ai/ha, preemergence, scale 0 to 100
[27] = 250 g ai/ha, scale 0-100, preemergence
[28] = 500 g ai/ha, scale 0 to 100 (0 no effect, 100 complete control), visual, 12 to 14 days, preemergence
[29] = preemergence, 500 g ai/ha, visual injury, 0 to 100 scale (0 no effect, 100 complete control)
[30] = 125 g ai/ha, scale 0 (no effect) to 100 (complete control), visual, 12 to 14 days, preemergence
[31] = 125 g ai/ha, scale 0 to 100 (0 no effect, 100 complete control)

CC(=NO)c1cccc(NC(=O)c2cc(C(C)(C)C)nn2CC(F)(F)F)c1 [Compound 112]
Soybean plant response rating [1, 14]: 60 | Plant response rating, Soybean [1, 15]: 50 | Plant response rating, Soybean [1, 16]: 0 | Plant response rating, Soybean [1, 17]: 0 | Foxtail, Giant plant response rating [2, 18]: 20 | Plant response rating, Foxtail, Giant [2, 19]: 35 | Foxtail, Giant plant response rating [2, 20]: 25 | Foxtail, Giant plant response rating [2, 21]: 50 | Crabgrass, Large plant response rating [3, 14]: 30 | Plant response rating, Crabgrass, Large [3, 15]: 30 | Plant response rating, Crabgrass, Large [3, 16]: 10 | Plant response rating, Crabgrass, Large [3, 17]: 0 | Pigweed plant response rating [4, 14]: 100 | Plant response rating, Pigweed [4, 15]: 100 | Plant response rating, Pigweed [4, 16]: 60 | Plant response rating, Pigweed [4, 17]: 10 | Foxtail, Giant plant response rating [5, 14]: 50 | Plant response rating, Foxtail, Giant [5, 15]: 50 | Plant response rating, Foxtail, Giant [5, 16]: 50 | Plant response rating, Foxtail, Giant [5, 17]: 30 | Ducksalad plant response rating [6, 22]: 0 | Ducksalad plant response rating [6, 23]: 0 | Ducksalad plant response rating [6, 24]: 0 | Plant response rating, Ducksalad [6, 25]: 100 | Nutsedge, Yellow plant response rating [7, 14]: 20 | Plant response rating, Nutsedge, Yellow [7, 15]: 20 | Plant response rating, Nutsedge, Yellow [7, 16]: 0 | Plant response rating, Nutsedge, Yellow [7, 17]: 0 | Pigweed plant response rating [8, 18]: 40 | Plant response rating, Pigweed [8, 19]: 60 | Pigweed plant response rating [8, 20]: 65 | Pigweed plant response rating [8, 21]: 90 | Morningglory plant response rating [9, 18]: 20 | Plant response rating, Morningglory [9, 19]: 15 | Morningglory plant response rating [9, 20]: 20 | Morningglory plant response rating [9, 21]: 45 | Velvetleaf plant response rating [10, 14]: 90 | Plant response rating, Velvetleaf [10, 15]: 80 | Plant response rating, Velvetleaf [10, 16]: 0 | Plant response rating, Velvetleaf [10, 17]: 0 | Ragweed plant response rating [11, 14]: 70 | Plant response rating, Ragweed [11, 15]: 70 | Plant response rating, Ragweed [11, 16]: 0 | Plant response rating, Ragweed [11, 17]: 0 | Barnyardgrass plant response rating [12, 22]: 0 | Barnyardgrass plant response rating [12, 23]: 0 | Barnyardgrass plant response rating [12, 24]: 10 | Plant response rating, Barnyardgrass [12, 25]: 30 | Goosegrass plant response rating [13, 14]: 30 | Plant response rating, Goosegrass [13, 15]: 30 | Plant response rating, Goosegrass [13, 16]: 20 | Plant response rating, Goosegrass [13, 17]: 20

CCc1nc(C(C)(C)C)sc1C(=O)Nc1cccc(C(=O)NCC2CC2)n1 [Compound 215]
Plant response rating, Soybean [1, 26]: 0 | Plant response rating, Soybean [1, 27]: 0 | Plant response rating, Soybean [1, 28]: 0 | Foxtail, Giant plant response rating [2, 18]: 25 | Plant response rating, Foxtail, Giant [2, 19]: 40 | Foxtail, Giant plant response rating [2, 21]: 75 | Foxtail, Giant plant response rating [2, 29]: 50 | Plant response rating, Crabgrass, Large [3, 26]: 0 | Plant response rating, Crabgrass, Large [3, 30]: 70 | Plant response rating, Crabgrass, Large [3, 27]: 85 | Plant response rating, Crabgrass, Large [3, 28]: 100 | Plant response rating, Pigweed [4, 26]: 80 | Plant response rating, Pigweed [4, 30]: 100 | Plant response rating, Pigweed [4, 27]: 100 | Plant response rating, Pigweed [4, 28]: 100 | Plant response rating, Foxtail, Giant [5, 26]: 0 | Plant response rating, Foxtail, Giant [5, 30]: 50 | Plant response rating, Foxtail, Giant [5, 27]: 70 | Plant response rating, Foxtail, Giant [5, 28]: 100 | Ducksalad plant response rating [6, 22]: 40 | Ducksalad plant response rating [6, 31]: 40 | Ducksalad plant response rating [6, 24]: 60 | Plant response rating, Ducksalad [6, 25]: 80 | Plant response rating, Nutsedge, Yellow [7, 26]: 0 | Plant response rating, Nutsedge, Yellow [7, 30]: 0 | Plant response rating, Nutsedge, Yellow [7, 27]: 0 | Plant response rating, Nutsedge, Yellow [7, 28]: 0 | Pigweed plant response rating [8, 18]: 70 | Plant response rating, Pigweed [8, 19]: 80 | Pigweed plant response rating [8, 21]: 85 | Pigweed plant response rating [8, 29]: 30 | Morningglory plant response rating [9, 18]: 25 | Plant response rating, Morningglory [9, 19]: 35 | Morningglory plant response rating [9, 21]: 55 | Morningglory plant response rating [9, 29]: 20 | Plant response rating, Velvetleaf [10, 26]: 0 | Plant response rating, Velvetleaf [10, 27]: 40 | Plant response rating, Velvetleaf [10, 28]: 100 | Plant response rating, Ragweed [11, 26]: 0 | Plant response rating, Ragweed [11, 27]: 100 | Plant response rating, Ragweed [11, 28]: 100 | Barnyardgrass plant response rating [12, 22]: 0 | Barnyardgrass plant response rating [12, 31]: 0 | Barnyardgrass plant response rating [12, 24]: 40 | Plant response rating, Barnyardgrass [12, 25]: 50 | Plant response rating, Goosegrass [13, 26]: 0 | Plant response rating, Goosegrass [13, 30]: 40 | Plant response rating, Goosegrass [13, 27]: 80 | Plant response rating, Goosegrass [13, 28]: 100
